From the supplement of paper PMC13380429

Assays:
Settings in all cases: 72 h
Caco-2 [1] = assay: cell viability relative to DMSO; higher = less toxic
Calu-3 [2] = assay: as above
HepG2 [3] = assay: as above
U2OS [4] = assay: as above
Vero E6 [5] = assay: as above
Caco-2 [6] = assay: relative viability EC50 (midpoint between 100% and the lowest measured viability); higher = less toxic
Calu-3 [7] = assay: as above
HepG2 [8] = assay: as above
U2OS [9] = assay: as above
Vero E6 [10] = assay: as above
Caco-2 [11] = assay: drug sensitivity score (DSS) for viability; higher = more toxic; extreme values may be limits of the assay
Calu-3 [12] = assay: as above
HepG2 [13] = assay: as above
U2OS [14] = assay: as above
Vero E6 [15] = assay: as above

SMILES | cell viability (Caco-2 [1]; 1 nM) [%] | cell viability (Caco-2 [1]; 10 nM) [%] | cell viability (Caco-2 [1]; 100 nM) [%] | cell viability (Caco-2 [1]; 1000 nM) [%] | cell viability (Caco-2 [1]; 10000 nM) [%] | cell viability (Calu-3 [2]; 1 nM) [%] | cell viability (Calu-3 [2]; 10 nM) [%] | cell viability (Calu-3 [2]; 100 nM) [%] | cell viability (Calu-3 [2]; 1000 nM) [%] | cell viability (Calu-3 [2]; 10000 nM) [%] | cell viability (HepG2 [3]; 1 nM) [%] | cell viability (HepG2 [3]; 10 nM) [%] | cell viability (HepG2 [3]; 100 nM) [%] | cell viability (HepG2 [3]; 1000 nM) [%] | cell viability (HepG2 [3]; 10000 nM) [%] | cell viability (U2OS [4]; 1 nM) [%] | cell viability (U2OS [4]; 10 nM) [%] | cell viability (U2OS [4]; 100 nM) [%] | cell viability (U2OS [4]; 1000 nM) [%] | cell viability (U2OS [4]; 10000 nM) [%] | cell viability (Vero E6 [5]; 1 nM) [%] | cell viability (Vero E6 [5]; 10 nM) [%] | cell viability (Vero E6 [5]; 100 nM) [%] | cell viability (Vero E6 [5]; 1000 nM) [%] | cell viability (Vero E6 [5]; 10000 nM) [%] | relative viability EC50 (Caco-2 [6]) [µM] | relative viability EC50 (Calu-3 [7]) [µM] | relative viability EC50 (HepG2 [8]) [µM] | relative viability EC50 (U2OS [9]) [µM] | relative viability EC50 (Vero E6 [10]) [µM] | drug sensitivity score (Caco-2 [11]) | drug sensitivity score (Calu-3 [12]) | drug sensitivity score (HepG2 [13]) | drug sensitivity score (U2OS [14]) | drug sensitivity score (Vero E6 [15])
C[C@@H](O)[C@H](N)C(=O)N1CCC[C@H]1C(=O)N1CCC[C@H]1C(=O)N[C@H](C(N)=O)[C@@H](C)O [rapastinel] | 100 | 88 | 97.6 | 97.1 | 92.6 | 95.3 | 101 | 91.4 | 96.8 | 106 | 100 | 110 | 91.9 | 104 | 97.6 | 95.7 | 94.4 | 98.8 | 95.6 | 97.3 | 97.6 | 99.5 | 95 | 102 | 114 | > 10 | > 10 | > 10 | > 10 | > 10 | 0 | 0 | 0 | 0 | 0
CC(C)(Sc1ccncc1-c1ccc(C#N)c2ccccc12)C(=O)O [verinurad] | 97.6 | 93.2 | 101 | 95 | 101 | 106 | 93.7 | 90.9 | 113 | 96.8 | 103 | 99.8 | 93.3 | 105 | 122 | 103 | 99.5 | 96.8 | 99.8 | 103 | 95.3 | 101 | 91.9 | 99.4 | 106 | > 10 | > 10 | > 10 | > 10 | > 10 | 0 | 0 | 0 | 0 | 0
CC[C@@H]1C(=O)OC[C@@H]1Cc1cncn1C [pilocarpine] | 100 | 98.1 | 88.7 | 91.3 | 103 | 109 | 102 | 103 | 98.4 | 97.9 | 97.7 | 95.3 | 105 | 104 | 105 | 106 | 101 | 101 | 99.2 | 100 | 106 | 104 | 99.3 | 106 | 103 | > 10 | > 10 | > 10 | > 10 | > 10 | 0 | 0 | 0 | 0 | 0
O=C(CCc1ccc(O)cc1)c1c(O)cc(O)cc1O[C@@H]1O[C@H](CO)[C@@H](O)[C@H](O)[C@H]1O [phlorizin] | 94.3 | 118 | 98.3 | 97.7 | 93.7 | 89.7 | 95.5 | 93.2 | 94.3 | 95.3 | 107 | 87.5 | 94.9 | 96.9 | 106 | 96.7 | 98.5 | 93.3 | 104 | 94.5 | 96.4 | 97.9 | 98.4 | 96.7 | 97.3 | > 10 | > 10 | > 10 | > 10 | > 10 | 0 | 0 | 0 | 0 | 0
CCCCNc1ncc2c(-c3ccc(CN4CCN(C)CC4)cc3)cn([C@H]3CC[C@H](O)CC3)c2n1 [UNC2025] | 88.5 | 103 | 97.3 | 95.5 | 33.6 | 98.5 | 99.7 | 100 | 87.1 | 34.2 | 88.6 | 94 | 92 | 54.7 | 5.2 | 98.4 | 103 | 97 | 60.3 | 0.3 | 95.3 | 101 | 100 | 73.3 | 34.6 | 2.62 | 1.75 | 1.02 | 1.21 | 1.16 | 4.3 | 5.7 | 10.5 | 10.5 | 7.2
O=C(NCc1ccc(F)cc1)N1CCN2C(=O)OC(c3ccccc3)(c3ccccc3)[C@@H]2C1 (racemic) [SHA-68] | 101 | 101 | 89.1 | 93.6 | 85 | 99.7 | 110 | 104 | 100 | 97.2 | 100 | 102 | 98 | 107 | 110 | 101 | 95.6 | 100 | 96.6 | 96.8 | 97.1 | 96.8 | 98.3 | 102 | 100 | > 10 | > 10 | > 10 | > 10 | > 10 | 0.5 | 0 | 0 | 0 | 0
C[C@H](Nc1cc(NS(=O)(=O)N2CCC2)nc(SCc2cccc(F)c2F)n1)[C@@H](O)CO [SRT3190] | 103 | 91 | 93.3 | 96 | 101 | 104 | 97.1 | 99.9 | 89.9 | 98.5 | 97.6 | 90.1 | 91 | 111 | 96 | 98.4 | 95.2 | 100 | 93.2 | 94.5 | 102 | 100 | 95.2 | 98.5 | 96.4 | > 10 | > 10 | > 10 | > 10 | > 10 | 0 | 0 | 0 | 0 | 0
Cc1cc(-c2ccccc2)nnc1NCCN1CCOCC1 [minaprine] | 92 | 96 | 98.4 | 96.1 | 89.3 | 102 | 96.8 | 99.1 | 89.4 | 91.7 | 96.3 | 99.6 | 96.8 | 94.2 | 93.6 | 104 | 97.8 | 99.6 | 98.9 | 103 | 101 | 98.1 | 98.8 | 100 | 94.5 | > 10 | > 10 | > 10 | > 10 | > 10 | 0 | 0.2 | 0 | 0 | 0
O=C1CC[C@@](c2ccccc2)(C2CCN(Cc3ccc(I)cc3)CC2)C(=O)N1 [iododexetimide] | 89 | 104 | 98.1 | 97.7 | 93.9 | 97.8 | 110 | 102 | 107 | 104 | 107 | 96.4 | 92.5 | 87.5 | 83.6 | 98.8 | 95.5 | 94.3 | 100 | 90.4 | 98.7 | 100 | 102 | 100 | 93 | > 10 | > 10 | > 10 | > 10 | > 10 | 0 | 0 | 1.4 | 0 | 0
c1ccc(CNc2nc(NCc3ccccc3)c3ccccc3n2)cc1 [DBeQ] | 95.7 | 112 | 94.5 | 100 | 28.8 | 105 | 103 | 91.2 | 93.7 | 9 | 104 | 96.1 | 100 | 96.6 | 8.4 | 97.6 | 102 | 97.1 | 90.5 | 8.2 | 99.8 | 98.9 | 95.5 | 94.1 | 19.8 | 3.17 | 2.61 | 2.89 | 2.31 | 2.57 | 3.9 | 6 | 5.5 | 6.7 | 5.4
Cc1ccccc1N1CCN(S(=O)(=O)C[C@]23CC[C@H](C[C@@H]2NC(=O)[C@@H](N)CCS(C)(=O)=O)C3(C)C)CC1 | 97.5 | 93.3 | 90 | 108 | 96.5 | 98.2 | 103 | 94.3 | 105 | 99.5 | 109 | 94.7 | 107 | 111 | 108 | 95.3 | 96.4 | 95.8 | 101 | 103 | 101 | 93.8 | 98 | 87.6 | 110 | > 10 | > 10 | > 10 | > 10 | > 10 | 0 | 0 | 0 | 0 | 0
CCCC(CCC)C(=O)O[C@H]1C[C@H]2CC[C@@H](C1)[N+]2(C)C [anisotropine] | 94.8 | 95.2 | 86.6 | 97.8 | 99.1 | 94.7 | 107 | 93.9 | 97.6 | 92 | 102 | 96.9 | 99 | 90.2 | 102 | 101 | 99 | 90.3 | 99.9 | 90.7 | 100 | 96.1 | 97.8 | 96.6 | 100 | > 10 | > 10 | > 10 | > 10 | > 10 | 0 | 0 | 0 | 0 | 0
COc1cccc(C(=O)CCN[C@@H](C)[C@H](O)c2ccccc2)c1 [oxyfedrine] | 99.3 | 101 | 108 | 102 | 95.8 | 86.3 | 98.6 | 113 | 95.6 | 107 | 101 | 105 | 98.9 | 91.3 | 79.8 | 97.8 | 103 | 98.5 | 99.9 | 95.4 | 103 | 99.8 | 99.2 | 104 | 101 | > 10 | > 10 | > 10 | > 10 | > 10 | 0 | 0 | 1.3 | 0 | 0
CNC(=O)Oc1ccccc1OC(C)C [propoxur] | 99.6 | 84.6 | 104 | 88.1 | 101 | 102 | 97.1 | 86.2 | 94.4 | 104 | 105 | 93.3 | 87.5 | 93.8 | 99.7 | 101 | 97.7 | 95.7 | 94.9 | 98.2 | 95 | 106 | 102 | 88.2 | 85.4 | > 10 | > 10 | > 10 | > 10 | > 10 | 0 | 0 | 0 | 0 | 1
